The record followed here is US20260250277A1, “HYDRAZINO GROUP-CONTAINING COMPOUND” (CHIA TAI TIANQING PHARMACEUTICAL GROUP CO., LTD., priority 2022, published 2026).

Like-named read-outs stand apart in the source and are kept apart here.

One series addresses ATM kinase (Homo sapiens, UniProt Q13315). The series can be described thus: Inhibitory activity against ATM kinase (p53 substrate, HTRF). The class given is biochemical. On the procedure:
(§1) ATM kinase solution (concentration: 25 ng/μL) was added to assay wells at 6 μL/well, and different compounds dissolved in DMSO were added to the assay wells separately using a nanoliter pipettor, such that the final concentrations of the compounds were 10000 nM to 2.44 nM. In this experiment, the wells were set in duplicate, and a control well was set. After incubation of the above system for 30 min at room temperature, ATP (100 μM) was mixed with p53 substrate (50 nM) at a ratio of 1:1, and the mixture was added at 4 μL/well. The resulting mixture was left to react at room temperature for 2 h, and then 5 μL of EDTA was added to terminate the reaction, followed by addition of 5 μL of detection antibodies, Mab Anti-phospho p53 and Mab Anti GST-d2 (manufacturer: perkinelmer). The mixture was incubated at room temperature for 1 h. The plate was read using a PerkinElmer Envision multifunctional microplate reader (excitation: 320 nm, emission: 620 nm/665 nm), and IC50 was calculated by four-parameter fitting.

The target in series [1] is ATR/ATPIP (ATR-interacting protein) kinase (Homo sapiens, UniProt Q13535). The series can be described thus: Inhibitory activity against ATR kinase (p53 substrate, HTRF). The class given is biochemical. How it is done: as §1, with “ATR/ATPIP (ATR-interacting protein)” for “ATM”, “50” for “25”, “(5” for “(100”
ATR/ATPIP (ATR-interacting protein) kinase, sequence (Q13535 whole entry): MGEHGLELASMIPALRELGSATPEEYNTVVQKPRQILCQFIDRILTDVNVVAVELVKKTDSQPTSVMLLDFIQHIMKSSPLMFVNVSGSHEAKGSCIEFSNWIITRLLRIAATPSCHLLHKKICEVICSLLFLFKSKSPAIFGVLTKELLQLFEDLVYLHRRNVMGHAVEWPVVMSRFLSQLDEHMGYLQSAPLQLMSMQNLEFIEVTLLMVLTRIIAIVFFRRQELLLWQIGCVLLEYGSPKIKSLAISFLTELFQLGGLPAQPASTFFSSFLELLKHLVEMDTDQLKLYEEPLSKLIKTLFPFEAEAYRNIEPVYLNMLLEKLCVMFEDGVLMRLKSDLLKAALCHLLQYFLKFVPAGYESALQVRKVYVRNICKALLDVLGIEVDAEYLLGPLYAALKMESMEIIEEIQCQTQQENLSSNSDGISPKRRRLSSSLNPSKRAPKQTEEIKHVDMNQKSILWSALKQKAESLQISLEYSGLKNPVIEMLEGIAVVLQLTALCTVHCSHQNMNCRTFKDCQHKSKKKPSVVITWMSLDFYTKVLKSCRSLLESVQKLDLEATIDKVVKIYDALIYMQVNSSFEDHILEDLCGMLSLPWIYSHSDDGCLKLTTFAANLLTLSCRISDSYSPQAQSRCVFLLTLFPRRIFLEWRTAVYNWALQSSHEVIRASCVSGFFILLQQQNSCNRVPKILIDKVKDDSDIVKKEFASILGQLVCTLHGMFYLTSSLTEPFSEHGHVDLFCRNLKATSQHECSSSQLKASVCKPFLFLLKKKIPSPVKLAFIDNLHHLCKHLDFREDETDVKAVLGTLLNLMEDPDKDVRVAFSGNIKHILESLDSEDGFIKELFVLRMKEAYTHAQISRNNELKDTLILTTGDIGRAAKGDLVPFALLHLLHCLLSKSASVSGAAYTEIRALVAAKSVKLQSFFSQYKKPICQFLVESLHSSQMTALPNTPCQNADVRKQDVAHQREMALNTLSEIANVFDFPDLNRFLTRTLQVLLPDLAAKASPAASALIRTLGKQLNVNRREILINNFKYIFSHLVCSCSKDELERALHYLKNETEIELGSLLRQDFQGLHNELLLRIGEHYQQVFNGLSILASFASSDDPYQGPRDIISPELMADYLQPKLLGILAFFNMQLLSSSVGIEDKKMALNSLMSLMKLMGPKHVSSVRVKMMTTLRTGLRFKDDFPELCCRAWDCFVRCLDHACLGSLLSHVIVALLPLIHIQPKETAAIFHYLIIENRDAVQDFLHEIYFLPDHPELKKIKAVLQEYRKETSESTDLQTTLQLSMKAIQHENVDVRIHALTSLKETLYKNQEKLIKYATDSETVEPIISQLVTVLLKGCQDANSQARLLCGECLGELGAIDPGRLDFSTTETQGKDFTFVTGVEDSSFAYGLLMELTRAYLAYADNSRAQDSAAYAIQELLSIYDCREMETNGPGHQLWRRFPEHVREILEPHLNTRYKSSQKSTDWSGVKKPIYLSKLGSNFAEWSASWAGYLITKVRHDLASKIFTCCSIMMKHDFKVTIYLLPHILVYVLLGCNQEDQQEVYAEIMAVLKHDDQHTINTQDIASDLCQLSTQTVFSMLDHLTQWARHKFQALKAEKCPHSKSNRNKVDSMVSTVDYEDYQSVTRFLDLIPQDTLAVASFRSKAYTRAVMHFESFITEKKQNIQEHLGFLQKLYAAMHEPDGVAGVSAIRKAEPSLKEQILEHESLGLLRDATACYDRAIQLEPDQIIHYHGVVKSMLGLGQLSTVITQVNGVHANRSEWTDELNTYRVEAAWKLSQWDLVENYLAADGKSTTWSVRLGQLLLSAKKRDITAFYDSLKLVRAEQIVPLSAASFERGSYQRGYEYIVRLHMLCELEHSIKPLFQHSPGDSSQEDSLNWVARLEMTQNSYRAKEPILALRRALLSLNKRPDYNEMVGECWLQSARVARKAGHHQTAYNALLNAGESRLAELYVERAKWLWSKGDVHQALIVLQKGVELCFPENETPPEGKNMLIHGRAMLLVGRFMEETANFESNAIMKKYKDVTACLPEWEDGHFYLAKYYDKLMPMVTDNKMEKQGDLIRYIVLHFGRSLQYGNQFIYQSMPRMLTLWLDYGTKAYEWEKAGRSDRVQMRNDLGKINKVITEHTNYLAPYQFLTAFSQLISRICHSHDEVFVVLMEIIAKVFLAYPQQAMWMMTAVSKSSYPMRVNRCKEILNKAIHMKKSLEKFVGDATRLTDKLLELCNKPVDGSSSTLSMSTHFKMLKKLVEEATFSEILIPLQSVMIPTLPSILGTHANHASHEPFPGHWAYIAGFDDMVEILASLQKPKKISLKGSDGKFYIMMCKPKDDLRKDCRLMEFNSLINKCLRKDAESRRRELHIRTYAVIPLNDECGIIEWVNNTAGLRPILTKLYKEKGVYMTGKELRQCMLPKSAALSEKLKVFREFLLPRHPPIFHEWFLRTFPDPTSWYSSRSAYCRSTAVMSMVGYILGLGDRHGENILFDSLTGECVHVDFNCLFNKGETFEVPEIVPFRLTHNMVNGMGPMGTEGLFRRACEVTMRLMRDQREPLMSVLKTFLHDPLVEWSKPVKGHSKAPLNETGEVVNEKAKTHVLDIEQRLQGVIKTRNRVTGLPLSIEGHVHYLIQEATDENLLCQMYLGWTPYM
ATR/ATPIP (ATR-interacting protein) kinase, sequence (Q8WXE1 whole entry partner): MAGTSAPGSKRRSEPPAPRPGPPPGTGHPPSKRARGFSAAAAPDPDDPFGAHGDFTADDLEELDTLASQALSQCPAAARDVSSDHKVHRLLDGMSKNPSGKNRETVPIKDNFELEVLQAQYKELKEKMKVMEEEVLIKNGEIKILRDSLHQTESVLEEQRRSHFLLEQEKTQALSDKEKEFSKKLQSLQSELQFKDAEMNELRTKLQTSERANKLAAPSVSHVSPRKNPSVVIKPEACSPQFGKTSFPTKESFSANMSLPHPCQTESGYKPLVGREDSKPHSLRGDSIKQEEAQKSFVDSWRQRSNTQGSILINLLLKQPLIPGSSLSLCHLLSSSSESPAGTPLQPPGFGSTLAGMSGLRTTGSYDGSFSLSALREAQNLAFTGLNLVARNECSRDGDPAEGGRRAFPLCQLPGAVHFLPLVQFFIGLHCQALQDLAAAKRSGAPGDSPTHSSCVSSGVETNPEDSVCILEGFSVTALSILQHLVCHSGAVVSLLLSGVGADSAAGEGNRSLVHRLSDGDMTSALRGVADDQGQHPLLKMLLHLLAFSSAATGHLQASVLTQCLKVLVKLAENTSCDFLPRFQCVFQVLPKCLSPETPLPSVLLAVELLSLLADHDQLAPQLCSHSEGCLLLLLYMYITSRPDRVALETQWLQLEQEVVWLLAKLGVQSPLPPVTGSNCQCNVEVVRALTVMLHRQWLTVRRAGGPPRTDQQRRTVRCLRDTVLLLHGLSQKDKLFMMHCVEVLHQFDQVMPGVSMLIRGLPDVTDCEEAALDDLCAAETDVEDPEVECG
A general note: TR-FRET usually uses a lanthanide donor and a delayed reading to cut background.

The target of series [2] is DNA-PK (DNA-dependent protein kinase) (Homo sapiens, UniProt P78527). Description: Inhibitory activity against DNA-PK (p53 substrate, HTRF). The class given is biochemical. On the procedure: as §1, with “DNA-PK” for “ATM”, “0.15” for “25”
In series [3] the test system is CHK2 phosphorylation of NCI-H2228 cells. The series can be described thus: Inhibitory activity against CHK2 phosphorylation of NCI-H2228 cells (p-CHK2 Thr68 AlphaLISA). The class given is cell-based. Conditions: Homo sapiens. On the procedure: NCI-H2228 cells in a good growth state were collected, added to a centrifuge tube, adjusted to a cell density of 1.25×10^6 cells/mL, and seeded in a 384-well plate (8 μL/well). The cells were equilibrated in a cell incubator for 1.5 h, and then compounds were added using a nanoliter pipettor, such that the final concentrations of the compounds were 200 nM to 0.049 nM. In this experiment, the wells were set in duplicate, and a control well was set. After the mixture was further cultured for 1 h in the cell incubator, an assay was performed using a p-CHK2 (Thr68) assay kit (manufacturer: perkinelmer) and the Envision microplate reader AlphaLISA program. A four-parameter analysis was performed, a dose-response curve was fit, and IC50 was calculated.
A general note: In Alpha technology, singlet oxygen from a donor bead excites a nearby acceptor bead.

The nature of series [4]: In vivo pharmacokinetics (Table 4). The note with it: plasma; for MRT last: read-out: MRT(0-t); for Vd: read-out: Vz.

Consider `CC(C)n1c(=O)n(N)c2cnc3cc(F)c(-c4ccc(OCCCN5CCCCC5)nc4)cc3c21` [Example 2], for which the IC50 – broadly, the concentration at which inhibition is half-maximal – against ATM kinase is under 50 nM. The IC50 in series [1] came out at 821 nM. For the same compound, the IC50 in series [2] was over 1000 nM. The compound also returned an IC50 in series [3] of under 50 nM. In addition, in series [4] (iv, 1 mg/kg), the AUC(0-inf) (commonly total exposure, with the tail of the curve extrapolated) was found to be 539 ng·h/mL; the AUC(0-t) (in general, exposure summed from dosing to a finite time, without extrapolation to infinity) came to 521 ng·h/mL; the half-life – broadly, how long it takes for the measured level to halve – was 1.7 h; the MRT last amounted to 2.11 h. Besides, the Vd in series [4] (iv, 1 mg/kg) is 4.55 L/kg. For the same compound, in series [4] (po, IG, 10 mg/kg), the AUC(0-inf) was 4270 ng·h/mL; the AUC(0-t) was determined as 4150 ng·h/mL; the Cmax (in general, the peak of the concentration-time curve) was found to be 521 ng/mL; the Tmax (usually the time from dosing to the highest level) was 0.5 h. In series [4] (po, IG, 10 mg/kg), the half-life was 4.59 h and the MRT last came out at 6.1 h.

The compound `CC(C)n1c(=O)n(N)c2cnc3cc(F)c(-c4ccc(OCCCN5CCCC5)nc4)cc3c21` [Example 3] yielded an IC50 on ATM kinase of under 50 nM. For the same compound, in series [1], the IC50 was over 1000 nM. Also, the IC50 in series [2] is over 1000 nM. Besides, the IC50 in series [3] is under 50 nM. In series [4] (iv, 1 mg/kg), the AUC(0-inf) is 460 ng·h/mL, the AUC(0-t) was 445 ng·h/mL, the half-life was 1.74 h and the MRT last is 2.1 h. The Vd in series [4] (iv, 1 mg/kg) worked out at 5.45 L/kg. Besides, in series [4] (po, IG, 10 mg/kg), the AUC(0-inf) was 4330 ng·h/mL, the AUC(0-t) stood at 4250 ng·h/mL, the Cmax stood at 495 ng/mL and the Tmax was 1 h. Further, in series [4] (po, IG, 10 mg/kg), the half-life was 4.01 h and the MRT last amounted to 6.05 h.

For the compound `COc1cc2ncc3c(c2cc1-c1ccc(OCCCN2CCCC2)nc1)n(C1CC1)c(=O)n3N` [Example 11], the IC50 was under 50 nM on ATM kinase, over 1000 nM in series [1], over 1000 nM in series [2] and under 50 nM in series [3].

Turning to `COC1CCC(n2c(=O)n(N)c3cnc4cc(F)c(-c5ccc(OCCCN6CCCC6)nc5)cc4c32)C1` (stereo not shown) [Example 13], the half-maximal inhibitory concentration (IC50) is under 50 nM at ATM kinase, over 1000 nM in series [1], over 1000 nM in series [2] and under 50 nM in series [3].

Regarding `COC1CCC(n2c(=O)n(N)c3cnc4cc(F)c(-c5ccc(OCCCN(C)C)nc5)cc4c32)C1` (stereo not shown) [Example 14], the half-inhibitory concentration (IC50) at ATM kinase was under 50 nM; in series [1] it was over 1000 nM; in series [2], over 1000 nM; in series [3], under 50 nM.

On to `COc1cc2ncc3c(c2cc1-c1ccc(OCCCN2CCCC2)nc1)n(C(C)C)c(=O)n3N` [Example 17], for which the IC50 was under 50 nM against ATM kinase, over 1000 nM in series [1], over 1000 nM in series [2] and under 50 nM in series [3].

Compound `Nn1c(=O)n(C2CC2)c2c3cc(-c4ccc(OCCCN5CCCCC5)nc4)c(F)cc3ncc21` [Example 18] had a half-maximal inhibitory concentration (IC50) at ATM kinase of under 50 nM. The IC50 in series [1] was over 1000 nM. The compound further showed a concentration for half-maximal inhibition (IC50) in series [2] of over 1000 nM. This compound also gave an IC50 in series [3] of under 50 nM. In addition, in series [4] (iv, 1 mg/kg), the AUC(0-inf) turned out to be 624 ng·h/mL, the AUC(0-t) was found to be 587 ng·h/mL, the half-life is 2.17 h and the MRT last came out at 1.89 h. In addition, the Vd in series [4] (iv, 1 mg/kg) came out at 3.9 L/kg. In addition, in series [4] (po, IG, 10 mg/kg), the AUC(0-inf) was 4500 ng·h/mL, the AUC(0-t) came out at 4460 ng·h/mL, the Cmax came to 506 ng/mL and the Tmax is 4 h. For the same compound, in series [4] (po, IG, 10 mg/kg), the half-life is 3.51 h and the MRT last was 4.99 h.

Regarding `Nn1c(=O)n(C2CC2)c2c3cc(-c4ccc(OCCCN5CCCC5)nc4)c(F)cc3ncc21` [Example 19], the IC50 on ATM kinase was under 50 nM. The IC50 in series [1] is over 1000 nM. In addition, the IC50 in series [2] is over 1000 nM. This compound also registered an IC50 in series [3] of under 50 nM. In series [4] (iv, 1 mg/kg), the AUC(0-inf) was 474 ng·h/mL, the AUC(0-t) was 451 ng·h/mL, the half-life was 2.05 h and the MRT last is 1.84 h. The Vd in series [4] (iv, 1 mg/kg) was 4.82 L/kg. Moreover, in series [4] (po, IG, 10 mg/kg), the area under the curve AUC(0-inf) is 4000 ng·h/mL, the AUC(0-t) came to 3980 ng·h/mL, the Cmax was 485 ng/mL and the Tmax came out at 4 h. Further, in series [4] (po, IG, 10 mg/kg), the half-life is 3.07 h and the MRT last was determined as 4.72 h.

On to `COC1CC(n2c(=O)n(N)c3cnc4cc(F)c(-c5ccc(OCCCN6CCCCC6)nc5)cc4c32)C1` (stereo not shown) [Example 20], for which the IC50 against ATM kinase is under 50 nM; in series [1], over 1000 nM; in series [2], over 1000 nM; in series [3], under 50 nM.

Turning to `COC1CC(n2c(=O)n(N)c3cnc4cc(F)c(-c5ccc(OCCCN(C)C)nc5)cc4c32)C1` (stereo not shown) [Example 21], the half-maximal inhibitory concentration (IC50) on ATM kinase is under 50 nM; in series [1], over 1000 nM; in series [2], over 1000 nM; in series [3] it was under 50 nM.

With `COc1cc2ncc3c(c2cc1-c1ccc(OCCCN2CCCC2)nc1)n(-c1c(F)cncc1OC)c(=O)n3N` [Example 31], the IC50 against ATM kinase was under 50 nM; in series [1], 8720 nM; in series [2] it was over 10000 nM; in series [3] it was under 50 nM.
